Laboratory results reported in patent publication US20050182025A1, “Amidinylphenyl compounds and their use as fungicides” (priority 2002, published 2005).

What was measured:
Assay type in all cases: in vivo
[1] = tested on: Erysiphe graminis f. sp. tritici; test: Test A: preventive spray on wheat seedlings, wheat powdery mildew, disease rating; settings: wheat seedlings sprayed to run-off, inoculated the following day with Erysiphe graminis f. sp. tritici, rated after 7 days at 20° C.; test concentration not given
Text: General protocol for preparing test suspensions: Test compounds were first dissolved in acetone in an amount equal to 3% of the final volume and then suspended at the desired concentration (in ppm) in acetone and purified water (50/50 mix) containing 250 ppm of the surfactant Trem® 014 (polyhydric alcohol esters). The resulting test suspensions were then used in the following tests. Spraying a 200 ppm test suspension to the point of run-off on the test plants was the equivalent of a rate of 500 g/ha. The test suspension was sprayed to the point of run-off on wheat seedlings. The following day the seedlings were inoculated with a spore dust of Erysiphe graminis f. sp. tritici, (the causal agent of wheat powdery mildew) and incubated in a growth chamber at 20° C. for 7 days, after which disease ratings were made. Results for Tests A-C are given in Table A. In the table, a rating of 100 indicates 100% disease control and a rating of 0 indicates no disease control (relative to the controls). A dash (-) indicates no test results.

Puccinia recondita = test: Test B: preventive spray on wheat seedlings, wheat leaf rust, disease rating; settings: wheat seedlings sprayed to run-off, inoculated the following day with Puccinia recondita, 24 h saturated atmosphere then 6 days at 20° C.; test concentration not given
Text: (§1) General protocol for preparing test suspensions: Test compounds were first dissolved in acetone in an amount equal to 3% of the final volume and then suspended at the desired concentration (in ppm) in acetone and purified water (50/50 mix) containing 250 ppm of the surfactant Trem® 014 (polyhydric alcohol esters). The resulting test suspensions were then used in the following tests. Spraying a 200 ppm test suspension to the point of run-off on the test plants was the equivalent of a rate of 500 g/ha. The test suspension was sprayed to the point of run-off on wheat seedlings. The following day the seedlings were inoculated with a spore suspension of Puccinia recondita (the causal agent of wheat leaf rust) and incubated in a saturated atmosphere at 20° C. for 24 h, and then moved to a growth chamber at 20° C. for 6 days, after which disease ratings were made. Results for Tests A-C are given in Table A. In the table, a rating of 100 indicates 100% disease control and a rating of 0 indicates no disease control (relative to the controls). A dash (-) indicates no test results.

Septoria nodorum = test: Test C: preventive spray on wheat seedlings, Septoria glume blotch, disease rating; settings: wheat seedlings sprayed to run-off, inoculated the following day with Septoria nodorum, 48 h saturated atmosphere then 9 days at 20° C.; test concentration not given
Text: as §1, with “Septoria nodorum” for “Puccinia recondita”, “Septoria glume blotch)” for “wheat leaf rust)”, “48” for “24”, “9” for “6”

Row | SMILES | Test A disease control rating (100 = 100% disease control, 0 = no disease control relative to the controls) [1] [%] | Test B disease control rating (100 = 100% disease control, 0 = no disease control relative to the controls) (Puccinia recondita) [%] | Test C disease control rating (100 = 100% disease control, 0 = no disease control relative to the controls) (Septoria nodorum) [%]
1 | Cc1cc(OCCCCCl)c(C)cc1N=CN(C)C [Compound 16] | 88 | 100 | 97
2 | Cc1cc(NC(=S)N(C)C)c(C)c(Cl)c1OCCCC(C)C [compound 136] | 95 | 91 | 84
3 | Cc1cc(OCCC[Si](C)(C)C)c(F)cc1N=CN(C)C(C)C [compound 63] | 100 | 100 | 100
4 | CCCCC(CCC)Sc1cc(C)c(N=CN(C)C)cc1C (stereo not drawn) [compound 160] | 0 | 55 | 0
5 | CCN(C(=S)Nc1cc(Cl)c(OCCCC(C)C)cc1Cl)C(C)C [compound 127] | 0 | 99 | 100
6 | COC(CCCCOc1cc(C)c(N=CN(C)C)cc1C)(OC)OC [Compound 7] | 0 | 0 | 0
7 | C=CCCCOc1cc(C)c(N=CN(C)C)cc1C [Compound 6] | 0 | 100 | 60
8 | CCCC(CCC)Sc1cc(C)c(N=CN(C)C)cc1C [compound 157] | 0 | 96 | 99
9 | CCN(C)C(=S)Nc1cc(Cl)c(OCCCC(C)C)cc1C [compound 112] | 95 | 99 | 99
10 | CCN(CC)C(=S)Nc1cc(Cl)c(OCCCC(C)C)cc1C [compound 113] | 91 | 99 | 100
11 | CCCCC(CCCC)Sc1cc(C)c(N=CN(C)C)cc1C [compound 155] | 0 | 23 | 95
12 | C=C(COc1cc(C)c(N=CN(C)C)cc1C)C[Si](C)(C)C [Compound 38] | 96 | 100 | 20
13 | CCN(C)C(=S)Nc1cc(Cl)c(OCCCC(C)(C)C)c(Cl)c1C [compound 122] | 99 | 100 | 0
14 | CCN(CC)C(=S)Nc1cc(Cl)c(OCCCC(C)C)c(Cl)c1C [compound 117] | 29 | 37 | 60
